{"source": "patent US8173652B2", "about": "“Isoxazole-isoxazoles and isoxazole-isothiazoles” (Hoffmann-La Roche Inc., priority 2009, dated 2012)", "note": "pKi: −log10 of the molar value.", "data": [{"molecular_target": "T1, human GABA A receptor α5β3γ2 (Homo sapiens, UniProt P18507+P31644)", "T1 construct": "expressed in transfected cells; host or cells: HEK293 (transiently transfected), membrane preparation", "test": "[3H]flumazenil competition binding assay, human GABA A α5 receptor", "details": "human α5β3γ2 receptors transiently transfected in HEK293 cells; displacement of [3H]flumazenil 0.5 nM; 1 hour at 4° C.; means of two determinations; read-out: hKi GABA A α5", "experimental": "Membrane Preparation and Binding Assay\nThe affinity of compounds at GABA A receptor subtypes was measured by competition for [3H]flumazenil (85 Ci/mmol; Roche) binding to HEK293 cells expressing rat (stably transfected) or human (transiently transfected) receptors of composition α1β3γ2, α2β3γ2, α3β3γ2 and α5β3γ2.\nCell pellets were suspended in Krebs-tris buffer (4.8 mM KCl, 1.2 mM CaCl2, 1.2 mM MgCl2, 120 mM NaCl, 15 mM Tris; pH 7.5; binding assay buffer), homogenized by polytron for ca. 20 sec on ice and centrifuged for 60 min at 4° C. (50000 g; Sorvall, rotor: SM24=20000 rpm). The cell pellets were re-suspended in Krebs-tris buffer and homogenized by polytron for ca. 15 sec on ice. Protein was measured (Bradford method, Bio-Rad) and aliquots of 1 mL were prepared and stored at −80° C.\nRadioligand binding assays were carried out in a volume of […] (96-well plates) which contained […] of cell membranes, [^3H]flumazenil at a concentration of 1 nM for α1, α2 and α3 subunits and 0.5 nM for α5 subunits and the test compound in the range of […]. Nonspecific binding was defined by 10^−5 M diazepam and typically represented less than 5% of the total binding. Assays were incubated to equilibrium for 1 hour at 4° C. and harvested onto GF/C uni-filters (Packard) by filtration using a Packard harvester and washing with ice-cold wash buffer (50 mM Tris; pH 7.5). After drying, filter-retained radioactivity was detected by liquid scintillation counting. Ki values were calculated using Excel-Fit (Microsoft) and are the means of two determinations.", "values": [{"smiles": "Cc1onc(-c2ccc(F)cn2)c1COc1cc(C(=O)NCCO)sn1", "note": "[Example 39, 3-[3-(5-Fluoro-pyridin-2-yl)-5-methyl-isoxazol-4-ylmethoxy]-isothiazole-5-carboxylic acid (2-hydroxy-ethyl)-amide]", "pKi": 7.89}, {"smiles": "Cc1onc(-c2ccccc2)c1COc1cc(C(=O)NN2CCOCC2)on1", "note": "[Example 13, 3-(5-Methyl-3-phenyl-isoxazol-4-ylmethoxy)-isoxazole-5-carboxylic acid morpholin-4-ylamide]", "pKi": 8.55}, {"smiles": "Cc1onc(-c2ccccn2)c1COc1cc(C(=O)NN2CCCC2)on1", "note": "[Example 21, 3-(5-Methyl-3-pyridin-2-yl-isoxazol-4-ylmethoxy)-isoxazole-5-carboxylic acid pyrrolidin-1-ylamide]", "pKi": 8.11}, {"smiles": "Cc1onc(-c2ccccn2)c1COc1cc(C(=O)NN(C)C)on1", "note": "[Example 18, 3-(5-Methyl-3-pyridin-2-yl-isoxazol-4-ylmethoxy)-isoxazole-5-carboxylic acid N′,N′-dimethyl-hydrazide]", "pKi": 8.05}, {"smiles": "Cc1onc(-c2ccccn2)c1COc1cc(C(=O)NCCO)on1", "note": "[Example 15, 3-(5-Methyl-3-pyridin-2-yl-isoxazol-4-ylmethoxy)-isoxazole-5-carboxylic acid (2-hydroxy-ethyl)-amide]", "pKi": 8.52}, {"smiles": "CCCCc1noc(C)c1COc1cc(C(=O)N[C@@H](C)CO)on1", "note": "[Example 26, 3-(3-Butyl-5-methyl-isoxazol-4-ylmethoxy)-isoxazole-5-carboxylic acid ((S)-2-hydroxy-1-methyl-ethyl)-amide]", "pKi": 7.64}, {"smiles": "Cc1onc(-c2ccc(F)cc2)c1COc1cc(C(=O)N2CC3(COC3)C2)on1", "note": "[Example 42, {3-[3-(4-Fluoro-phenyl)-5-methyl-isoxazol-4-ylmethoxy]-isoxazol-5-yl}-(2-oxa-6-aza-spiro[3.3]hept-6-yl)-methanone]", "pKi": 8.01}, {"smiles": "CCCCc1noc(C)c1/C=C/c1cc(C(=O)NCCO)on1", "note": "[Example 1, 3-[(E)-2-(3-Butyl-5-methyl-isoxazol-4-yl)-vinyl]-isoxazole-5-carboxylic acid (2-hydroxy-ethyl)-amide]", "pKi": 7.54}, {"smiles": "CC(=O)OCCNC(=O)c1cc(OCc2c(-c3ccccc3)noc2C)no1", "note": "[Example 7, Acetic acid 2-{[3-(5-methyl-3-phenyl-isoxazol-4-ylmethoxy)-isoxazole-5-carbonyl]-amino}-ethyl ester]", "pKi": 7.77}, {"smiles": "Cc1onc(-c2ccc(F)cn2)c1COc1cc(C(=O)NC2CCOC2)sn1", "note": "(stereo not shown) [Example 40, 3-[3-(5-Fluoro-pyridin-2-yl)-5-methyl-isoxazol-4-ylmethoxy]-isothiazole-5-carboxylic acid (tetrahydro-furan-3-yl)-amide]", "pKi": 8.42}, {"smiles": "Cc1onc(-c2ccccn2)c1COc1cc(C(=O)NC(C)C)sn1", "note": "[Example 36, 3-(5-Methyl-3-pyridin-2-yl-isoxazol-4-ylmethoxy)-isothiazole-5-carboxylic acid isopropyl-amide]", "pKi": 7.82}, {"smiles": "Cc1onc(-c2ccccc2)c1COc1cc(C(=O)NC2CCOC2)on1", "note": "(stereo not shown) [Example 4, 3-(5-Methyl-3-phenyl-isoxazol-4-ylmethoxy)-isoxazole-5-carboxylic acid (tetrahydro-furan-3-yl)-amide]", "pKi": 8.36}, {"smiles": "Cc1onc(-c2ccc(F)cn2)c1COc1cc(C(=O)NC(C)C)on1", "note": "[Example 22, 3-[3-(5-Fluoro-pyridin-2-yl)-5-methyl-isoxazol-4-ylmethoxy]-isoxazole-5-carboxylic acid isopropylamide]", "pKi": 8.77}, {"smiles": "Cc1onc(-c2ccccn2)c1COc1cc(C(=O)NCC(F)(F)F)on1", "note": "[Example 17, 3-(5-Methyl-3-pyridin-2-yl-isoxazol-4-ylmethoxy)-isoxazole-5-carboxylic acid (2,2,2-trifluoro-ethyl)-amide]", "pKi": 8.64}, {"smiles": "Cc1onc(-c2ccccc2)c1COc1cc(C(=O)NN2CCCCC2)on1", "note": "[Example 11, 3-(5-Methyl-3-phenyl-isoxazol-4-ylmethoxy)-isoxazole-5-carboxylic acid piperidin-1-yl-amide]", "pKi": 7.86}, {"smiles": "Cc1onc(-c2ccccc2)c1COc1cc(C(=O)NC(C)CO)on1", "note": "(single isomer, unassigned) [Example 9, (S or R)-3-(5-Methyl-3-phenyl-isoxazol-4-ylmethoxy)-isoxazole-5-carboxylic acid (2-hydroxy-1-methyl-ethyl)-amide]", "pKi": 7.64}, {"smiles": "Cc1onc(-c2ccccn2)c1COc1cc(C(=O)NN2CCOCC2)on1", "note": "[Example 19, 3-(5-Methyl-3-pyridin-2-yl-isoxazol-4-ylmethoxy)-isoxazole-5-carboxylic acid morpholin-4-ylamide]", "pKi": 8.70}, {"smiles": "Cc1onc(-c2ccccn2)c1COc1cc(C(=O)NCCO)sn1", "note": "[Example 37, 3-(5-Methyl-3-pyridin-2-yl-isoxazol-4-ylmethoxy)-isothiazole-5-carboxylic acid (2-hydroxy-ethyl)-amide]", "pKi": 7.75}, {"smiles": "CCCCc1noc(C)c1COc1cc(C(=O)NC2CCOC2)sn1", "note": "(stereo not shown) [Example 41, 3-(3-Butyl-5-methyl-isoxazol-4-ylmethoxy)-isothiazole-5-carboxylic acid (tetrahydro-furan-3-yl)-amide]", "pKi": 7.54}, {"smiles": "Cc1onc(-c2ccccc2)c1COc1cc(C(=O)NN2CCCC2)on1", "note": "[Example 12, 3-(5-Methyl-3-phenyl-isoxazol-4-ylmethoxy)-isoxazole-5-carboxylic acid pyrrolidin-1-yl-amide]", "pKi": 7.73}, {"smiles": "Cc1onc(-c2ccccc2)c1COc1cc(C(=O)NCCO)sn1", "note": "[Example 35, 3-(5-Methyl-3-phenyl-isoxazol-4-ylmethoxy)-isothiazole-5-carboxylic acid (2-hydroxy-ethyl)-amide]", "pKi": 7.46}, {"smiles": "Cc1onc(-c2ccccc2)c1COc1cc(C(=O)NCCO)on1", "note": "[Example 5, 3-(5-Methyl-3-phenyl-isoxazol-4-ylmethoxy)-isoxazole-5-carboxylic acid (2-hydroxy-ethyl)-amide]", "pKi": 8.10}, {"smiles": "Cc1onc(-c2ccccn2)c1COc1cc(C(=O)NC2CCOC2)on1", "note": "(stereo not shown) [Example 16, 3-(5-Methyl-3-pyridin-2-yl-isoxazol-4-ylmethoxy)-isoxazole-5-carboxylic acid (tetrahydro-furan-3-yl)-amide]", "pKi": 8.85}, {"smiles": "Cc1onc(-c2ccccc2)c1COc1cc(C(=O)NC(C)CO)on1", "note": "(stereo not shown) [Example 6, 3-(5-Methyl-3-phenyl-isoxazol-4-ylmethoxy)-isoxazole-5-carboxylic acid (2-hydroxy-1-methyl-ethyl)-amide]", "pKi": 8.06}, {"smiles": "CCCCc1noc(C)c1COc1cc(C(=O)N[C@H](C)CO)on1", "note": "[Example 27, 3-(3-Butyl-5-methyl-isoxazol-4-ylmethoxy)-isoxazole-5-carboxylic acid ((R)-2-hydroxy-1-methyl-ethyl)-amide]", "pKi": 7.42}, {"smiles": "Cc1onc(-c2ccccc2)c1COc1cc(C(=O)NC(C)C)sn1", "note": "[Example 34, 3-(5-Methyl-3-phenyl-isoxazol-4-ylmethoxy)-isothiazole-5-carboxylic acid isopropylamide]", "pKi": 7.55}, {"smiles": "CCCCc1noc(C)c1COc1cc(C(=O)NC2CCOC2)on1", "note": "(single isomer, unassigned) [Example 31, (S or R)-3-(3-Butyl-5-methyl-isoxazol-4-ylmethoxy)-isoxazole-5-carboxylic acid (tetrahydro-furan-3-yl)-amide]", "pKi": 8.55}, {"smiles": "CCCCc1noc(C)c1COc1cc(C(=O)NCCO)on1", "note": "[Example 24, 3-(3-Butyl-5-methyl-isoxazol-4-ylmethoxy)-isoxazole-5-carboxylic acid (2-hydroxy-ethyl)-amide]", "pKi": 7.65}, {"smiles": "Cc1onc(-c2ccccn2)c1COc1cc(C(=O)NC(C)C)on1", "note": "[Example 14, 3-(5-Methyl-3-pyridin-2-yl-isoxazol-4-ylmethoxy)-isoxazole-5-carboxylic acid isopropyl-amide]", "pKi": 8.60}, {"smiles": "O=C(NCC(F)(F)F)c1cc(OCc2c(-c3ccc(F)cc3)noc2CO)no1", "note": "[Example 45, 3-[3-(4-Fluoro-phenyl)-5-hydroxymethyl-isoxazol-4-ylmethoxy]-isoxazole-5-carboxylic acid (2,2,2-trifluoro-ethyl)-amide]", "pKi": 8.00}, {"smiles": "Cc1onc(-c2ccc(F)cn2)c1COc1cc(C(=O)NCCO)on1", "note": "[Example 23, 3-[3-(5-Fluoro-pyridin-2-yl)-5-methyl-isoxazol-4-ylmethoxy]-isoxazole-5-carboxylic acid (2-hydroxy-ethyl)-amide]", "pKi": 8.66}, {"smiles": "Cc1onc(-c2ccccn2)c1COc1cc(C(=O)NN2CCCCC2)on1", "note": "[Example 20, 3-(5-Methyl-3-pyridin-2-yl-isoxazol-4-ylmethoxy)-isoxazole-5-carboxylic acid piperidin-1-ylamide]", "pKi": 8.22}, {"smiles": "CCCCc1noc(C)c1COc1cc(C(=O)NC(C)CO)on1", "note": "(stereo not shown) [Example 25, 3-(3-Butyl-5-methyl-isoxazol-4-ylmethoxy)-isoxazole-5-carboxylic acid (2-hydroxy-1-methyl-ethyl)-amide]", "pKi": 7.56}, {"smiles": "CCCCc1noc(C)c1COc1cc(C(=O)NC(C)C)on1", "note": "[Example 28, 3-(3-Butyl-5-methyl-isoxazol-4-ylmethoxy)-isoxazole-5-carboxylic acid isopropylamide]", "pKi": 7.61}]}]}
